Assay results from US12636297B2, “Boronic acid derivatives and therapeutic uses thereof” (priority 2019, dated 2026).
Like-named read-outs stand apart in the source and are kept apart here.

Tests used:
[1] = tested on: carbapenem-resistant (CR) Acinetobacter baumannii (AB); experiment: Broth microdilution MIC of β-lactams alone and with Compound 1 against carbapenem-resistant Acinetobacter baumannii clinical isolates; format: cell-based; details: Compound 1 at fixed 4 μg/mL; for % susceptible, [S]: breakpoints MER ≤8 μg/mL, TOL ≤4 μg/mL
Protocol: (§1) In this example the in vitro activity of Compound 1 was evaluated in combination with several β-lactams including sulbactam, meropenem, and ceftolozane against clinical isolates of carbapenem-resistant (CR) Acinetobacter baumannii (AB) and Pseudomonas aeruginosa (PA).

[2] = tested on: P. aeruginosa; experiment: Susceptibility testing of 262 P. aeruginosa strains with meropenem MIC >2 μg/mL; format: cell-based, Pseudomonas aeruginosa; details: Compound 1 at 8 μg/mL, breakpoints ≤8 μg/mL meropenem and cefepime, ≤4 μg/mL ceftolozane, ≤16 μg/mL piperacillin
Protocol: In addition, 509 Carbapenem-Resistant Enterobacteriaceae were tested with meropenem, cefepime, and ceftolozane alone and in combination with Compound 1 at 8 μg/mL. Furthermore, 262 strains of P. aeruginosa with a meropenem MIC>2 μg/mL were tested with meropenem, ceftolozane, cefepime and piperacillin alone and in combination with Compound 1 at 8 μg/mL.
262 strains of P. aeruginosa having a meropenem MIC greater than 2 μg/mL were tested with meropenem, ceftolozane, cefepime and piperacillin alone and Compound 1 at 8 μg/mL.

[3] = tested on: Pseudomonas aeruginosa (PA); experiment: Broth microdilution MIC of β-lactams alone and with Compound 1 against Pseudomonas aeruginosa clinical isolates (representative and challenge panels); format: cell-based; details: for MIC Distribution, % of isolates: Compound 1 at 8 μg/mL; for MIC Distribution, % of isolates / Minimum Inhibitory Concentration Distribution, % of isolates: AVI and TAZ at 4 μg/mL; for Minimum Inhibitory Concentration Distribution, % of isolates: representative panel of PA (N = 500), without Compound 1; for % susceptible, [S] / MIC50 / MIC90: Compound 1, AVI, and TAZ at fixed 4 μg/mL; for % susceptible, [S]: breakpoints MER ≤8, TOL ≤4, CAZ ≤8 μg/mL; for MIC50 / MIC90: Pseudomonas aeruginosa
Protocol: as §1

[4] = tested on: carbapenem resistant Acinetobacter baumannii; experiment: MIC of antibiotics with Compound 1 against panel of 503 carbapenem resistant Acinetobacter baumannii clinical isolates; format: cell-based; details: carbapenem resistant Acinetobacter baumannii (N = 503); antibiotic alone
Protocol: In another experiment, various antibiotics, meropenem, cefepime, ceftolozane and cefiderocol, were tested in combination with Compound 1 at 4 μg/ml and 8 μg/ml against the panel of 503 clinical isolates of carbapenem resistant Acinetobacter baumannii. […] Cefiderocol was tested at standard conditions, in […] media.

[5] = tested on: carbapenem resistant Enterobacteriaceae (CRE); experiment: MIC of antibiotics with Compound 1 against panel of 510 CRE clinical isolates; format: cell-based; details: antibiotic alone
Protocol: In this example, the antibiotics meropenem, cefepime, ceftolozane and cefiderocol, were tested in combination with Compound 1 at 4 μg/ml and 8 μg/ml against a panel of 510 clinical isolates representing various types of carbapenem resistant Enterobacteriaceae (CRE). Cefiderocol was tested at standard conditions, in […] media.

[6] = non-carbapenemase producing CRE, N = 45

C[C@@H](O)[C@H]1C(=O)N2C(C(=O)O)=C(S[C@@H]3CN[C@H](C(=O)N(C)C)C3)[C@H](C)[C@H]12 [MER, meropenem]
% susceptible, [S] ([1]; AB CP (100), defined carbapenemases): (0.0) %
MIC50 ([1]; Acinetobacter baumannii, AB CP (100), defined carbapenemases, read-out: MIC50): > 32 µg/mL
MIC90 ([1]; Acinetobacter baumannii, AB CP (100), defined carbapenemases, read-out: MIC90): > 32 µg/mL
MIC50 ([1]; CRAB (300)): >32/>32 μg/mL
MIC90 ([1]; CRAB (300)): >32/>32 μg/mL
% susceptible, [S] ([1]; CRAB (300)): (1.0) %
% of susceptible organisms at breakpoints ([2]; All strains (N = 262), meropenem MIC >2 μg/mL): 42%
% of susceptible organisms at breakpoints ([2]; MBL (N = 56)): 7%
% of susceptible organisms at breakpoints ([2]; No MBL (N = 206)): 51%
MIC Distribution, % of isolates ([3]; MIC 0.125 μg/mL, PA CAZ-AVI R (CAZ-AVI >8 μg/mL)): .3%
MIC Distribution, % of isolates ([3]; MIC 0.125 μg/mL, PA MER NS (MER >2 μg/mL), N = 612): 0.0%
MIC Distribution, % of isolates ([3]; MIC 0.125 μg/mL, PA TOL-TAZ NS (TOL-TAZ >4 μg/mL)): 1.3%
Minimum Inhibitory Concentration Distribution, % of isolates ([3]; MIC 0.125 μg/mL): 14.2%
MIC Distribution, % of isolates ([3]; MIC 0.25 μg/mL, PA CAZ-AVI R (CAZ-AVI >8 μg/mL)): .6%
MIC Distribution, % of isolates ([3]; MIC 0.25 μg/mL, PA MER NS (MER >2 μg/mL), N = 612): .0%
MIC Distribution, % of isolates ([3]; MIC 0.25 μg/mL, PA TOL-TAZ NS (TOL-TAZ >4 μg/mL)): 2.7%
Minimum Inhibitory Concentration Distribution, % of isolates ([3]; MIC 0.25 μg/mL): 33.0%
MIC Distribution, % of isolates ([3]; MIC 0.5 μg/mL, PA CAZ-AVI R (CAZ-AVI >8 μg/mL)): .2%
MIC Distribution, % of isolates ([3]; MIC 0.5 μg/mL, PA MER NS (MER >2 μg/mL), N = 612): .0%
MIC Distribution, % of isolates ([3]; MIC 0.5 μg/mL, PA TOL-TAZ NS (TOL-TAZ >4 μg/mL)): 3.7%
Minimum Inhibitory Concentration Distribution, % of isolates ([3]; MIC 0.5 μg/mL): 51.0%
MIC Distribution, % of isolates ([3]; MIC 1 μg/mL, PA CAZ-AVI R (CAZ-AVI >8 μg/mL)): .5%
MIC Distribution, % of isolates ([3]; MIC 1 μg/mL, PA MER NS (MER >2 μg/mL), N = 612): .0%
MIC Distribution, % of isolates ([3]; MIC 1 μg/mL, PA TOL-TAZ NS (TOL-TAZ >4 μg/mL)): 6.0%
Minimum Inhibitory Concentration Distribution, % of isolates ([3]; MIC 1 μg/mL): 66.2%
MIC Distribution, % of isolates ([3]; MIC 2 μg/mL, PA CAZ-AVI R (CAZ-AVI >8 μg/mL)): .8%
MIC Distribution, % of isolates ([3]; MIC 2 μg/mL, PA MER NS (MER >2 μg/mL), N = 612): .0%
MIC Distribution, % of isolates ([3]; MIC 2 μg/mL, PA TOL-TAZ NS (TOL-TAZ >4 μg/mL)): 8.7%
Minimum Inhibitory Concentration Distribution, % of isolates ([3]; MIC 2 μg/mL): 73.2%
MIC Distribution, % of isolates ([3]; MIC 4 μg/mL, PA CAZ-AVI R (CAZ-AVI >8 μg/mL)): 1.0%
MIC Distribution, % of isolates ([3]; MIC 4 μg/mL, PA MER NS (MER >2 μg/mL), N = 612): .5%
MIC Distribution, % of isolates ([3]; MIC 4 μg/mL, PA TOL-TAZ NS (TOL-TAZ >4 μg/mL)): 13.7%
Minimum Inhibitory Concentration Distribution, % of isolates ([3]; MIC 4 μg/mL): 79.8%
MIC Distribution, % of isolates ([3]; MIC 8 μg/mL, PA CAZ-AVI R (CAZ-AVI >8 μg/mL)): 8.2%
MIC Distribution, % of isolates ([3]; MIC 8 μg/mL, PA MER NS (MER >2 μg/mL), N = 612): 7.5%
MIC Distribution, % of isolates ([3]; MIC 8 μg/mL, PA TOL-TAZ NS (TOL-TAZ >4 μg/mL)): 22.1%
Minimum Inhibitory Concentration Distribution, % of isolates ([3]; MIC 8 μg/mL): 84.8%
MIC Distribution, % of isolates ([3]; MIC 16 μg/mL, PA CAZ-AVI R (CAZ-AVI >8 μg/mL)): 8.9%
MIC Distribution, % of isolates ([3]; MIC 16 μg/mL, PA MER NS (MER >2 μg/mL), N = 612): 6.7%
MIC Distribution, % of isolates ([3]; MIC 16 μg/mL, PA TOL-TAZ NS (TOL-TAZ >4 μg/mL)): 32.8%
Minimum Inhibitory Concentration Distribution, % of isolates ([3]; MIC 16 μg/mL): 90.4%
MIC Distribution, % of isolates ([3]; MIC 32 μg/mL, PA CAZ-AVI R (CAZ-AVI >8 μg/mL)): 3.2%
MIC Distribution, % of isolates ([3]; MIC 32 μg/mL, PA MER NS (MER >2 μg/mL), N = 612): 0.4%
MIC Distribution, % of isolates ([3]; MIC 32 μg/mL, PA TOL-TAZ NS (TOL-TAZ >4 μg/mL)): 58.2%
Minimum Inhibitory Concentration Distribution, % of isolates ([3]; MIC 32 μg/mL): 95.4%
MIC Distribution, % of isolates ([3]; MIC >32 μg/mL, PA CAZ-AVI R (CAZ-AVI >8 μg/mL)): 100.0%
MIC Distribution, % of isolates ([3]; MIC >32 μg/mL, PA MER NS (MER >2 μg/mL), N = 612): 100.0%
MIC Distribution, % of isolates ([3]; MIC >32 μg/mL, PA TOL-TAZ NS (TOL-TAZ >4 μg/mL)): 100.0%
Minimum Inhibitory Concentration Distribution, % of isolates ([3]; MIC >32 μg/mL): 100.0%
Minimum Inhibitory Concentration Distribution, % of isolates ([3]; MIC ≤0.06 μg/mL): 4.8%
MIC Distribution, % of isolates ([3]; MIC ≥0.06 μg/mL, PA CAZ-AVI R (CAZ-AVI >8 μg/mL)): .3%
MIC Distribution, % of isolates ([3]; MIC ≥0.06 μg/mL, PA MER NS (MER >2 μg/mL), N = 612): 0.0%
MIC Distribution, % of isolates ([3]; MIC ≥0.06 μg/mL, PA TOL-TAZ NS (TOL-TAZ >4 μg/mL)): 0.3%
% susceptible, [S] ([3]; PA (CAZ-AVI MIC >8) (37)): (18.9) %
% susceptible, [S] ([3]; PA (Challenge, 652)): (31.9) %
% susceptible, [S] ([3]; PA (MER MIC >2) (612)): (27.5) %
% susceptible, [S] ([3]; PA (Representative, 500)): (84.8) %
% susceptible, [S] ([3]; PA (TOL-TAZ MIC >4) (39)): (21.1) %
MIC50 ([3]; PA (CAZ-AVI MIC >8) (37)): 32 µg/mL
MIC90 ([3]; PA (CAZ-AVI MIC >8) (37)): > 32 µg/mL
MIC50 ([3]; PA (Challenge, 652)): 16 µg/mL
MIC90 ([3]; PA (Challenge, 652)): > 32 µg/mL
MIC50 ([3]; PA (MER MIC >2) (612)): 32 µg/mL
MIC90 ([3]; PA (MER MIC >2) (612)): > 32 µg/mL
MIC50 ([3]; PA (Representative, 500)): 0.5 µg/mL
MIC90 ([3]; PA (Representative, 500)): 16 µg/mL
MIC50 ([3]; PA (TOL-TAZ MIC >4) (39)): 32 µg/mL
MIC90 ([3]; PA (TOL-TAZ MIC >4) (39)): > 32 µg/mL
MIC50 [4]: > 32 µg/mL
MIC90 [4]: > 32 µg/mL
MIC50 ([5]; CRE KPC, N = 168): 32 µg/mL
MIC90 ([5]; CRE KPC, N = 168): > 32 µg/mL
MIC50 ([5]; CRE MBL, N = 145): > 32 µg/mL
MIC90 ([5]; CRE MBL, N = 145): > 32 µg/mL
MIC50 ([5]; CRE OXA, N = 152): 32 µg/mL
MIC90 ([5]; CRE OXA, N = 152): > 32 µg/mL
MIC50 [5, 6]: 8 µg/mL
MIC90 [5, 6]: 16 µg/mL
